# In patent US12297453B2, “Generation of norepinephrine neurons from human stem cells” (Wisconsin Alumni Research Foundation, priority 2020, dated 2025):
# B1: Activin A: ligand in TGF-β pathway directing NE cell fate specification (protein, UniProt P08476 311-426, looked up)
# Inhibin beta A chain: GLECDGKVNICCKKQFFVSFKDIGWNDWIIAPSGYHANYCEGECPSHIAGTSGSSLSFHSTVINHYRMRGHSPFANLKSCCVPTKLRPMSMLYYDDGQNIIKKDIQNMIVEECGCS
# B2: BMP4: bone morphogenetic protein (protein, UniProt P12644 293-408, looked up)
# Bone morphogenetic protein 4: SPKHHSQRARKKNKNCRRHSLYVDFSDVGWNDWIVAPPGYQAFYCHGDCPFPLADHLNSTNHAIVQTLVNSVNSSIPKACCVPTELSAISMLYLDEYDKVVLKNYQEMVVEGCGCR
# B3: BMP7: bone morphogenetic protein (protein, UniProt P18075 293-431, looked up)
# Bone morphogenetic protein 7: STGSKQRSQNRSKTPKNQEALRMANVAENSSSDQRQACKKHELYVSFRDLGWQDWIIAPEGYAAYYCEGECAFPLNSYMNATNHAIVQTLVHFINPETVPKPCCAPTQLNAISVLYFDDSSNVILKKYRNMVVRACGCH
# B4: FGF8: growth factor tested for NE fate specification (protein, UniProt P55075 23-233, looked up)
# Fibroblast growth factor 8: QEGPGRGPALGRELASLFRAGREPQGVSQQHVREQSLVTDQLSRRLIRTYQLYSRTSGKHVQVLANKRINAMAEDGDPFAKLIVETDTFGSRVRVRGAETGLYICMNKKGKLIAKSNGKGKDCVFTEIVLENNYTALQNAKYEGWYMAFTRKGRPRKGSKTRQHQREVHFMKRLPRGHHTTEQSLRFEFLNYPPFTRSLRGSQRTWAPEPR
# B5: BMP5: bone morphogenetic protein (protein, UniProt P22003 317-454, looked up)
# Bone morphogenetic protein 5: AANKRKNQNRNKSSSHQDSSRMSSVGDYNTSEQKQACKKHELYVSFRDLGWQDWIIAPEGYAAFYCDGECSFPLNAHMNATNHAIVQTLVHLMFPDHVPKPCCAPTKLNAISVLYFDDSSNVILKKYRNMVVRSCGCH
# How the values were obtained:
# Format in all cases: cell-based, human
# [1] = system: hESCs (H9 line); experiment: Patterning of hESCs to hindbrain R1 neuroepithelial cells with a CHIR99021 dose series (RT-qPCR, flow cytometry, immunocytochemistry)
# Protocol: (§1) On day 5, change the medium without SB431542. […] Cells were feed daily.
# gRNA was designed according to Benchling. Donor plasmid was generated by NEBuilder® HiFi DNA Assembly Master Mix (NEB, E2621S). Briefly, hPSCs were digested by TrypLE Express. Gene Pulser Xcell (Bio-Rad) was used for CRISPR/Cas9 delivery. Two-million cells were electroporated with 15 μg of sgRNA plasmid (pLenti-CRISPR) with 30 μg donor plasmid. Cells were plated at ˜150,000 cells/well of 6-well plate. Starting 24 hours after electroporation, 0.5 μg/ml puromycin were added to the culture medium. After 3 days of puromycin selection, hPSCs were switched to their normal culture medium and fed every other day until approximately 1-2 weeks after electroporation when distinct colonies were established. • Cell transplantation: Small aggregates of NE neural progenitors (day 10-day 12) were collected and suspended in artificial cerebral spinal fluid (aCSF) containing Rock inhibitor (0.5 μM), at a concentration of 100,000 cells/μl. 1 μl of cells were slowly injected into the left cortex (AP=+0.0 mm, ML=+1.8 mm, DV=−1.7 mm, from skull) of adult SCID mice (8-12 weeks) that were anesthetized with 1%-2% isoflurane mixed in oxygen. • Immunocytochemistry and flow cytometry: Immunocytochemistry was performed as described previously. See Huang et al., 2016, Sci Rep, 6:32600, doi:10.1038/srep32600. In brief, cells on coverslips were fixed in 4% neutral-buffered paraformaldehyde (PFA) for 10 minutes (min) at room temperature. Following rinsing with PBS, these cells were incubated in 0.2% Triton X-100 (in phosphate buffered saline (PBS)) for 10 min followed by 10% donkey serum (in PBS) at room temperature for 1 hour (h). The cells were then incubated with primary antibodies diluted in 5% donkey serum in 0.1% Triton X100 (in PBS) at 4° C. overnight, followed by fluorescently conjugated secondary antibodies at room temperature for 30 min. The nuclei were stained with Hoechst. Images were collected with a Nikon A1 laser-scanning confocal microscope. Flow cytometry was performed using Transcription Factor Buffer Set which is designed for transcription factor staining following manufacturer's instruction. Briefly, single cells were prepared using TrypLE Express Enzyme and fixed in the fixation buffer provided by the kit at 2-8° C. for 45 min. After 3 washings with the permeable buffer, primary antibodies were added to cells for 45 min at 2-8° C. in a light-tight box. Cells were washed three times before fluorescently conjugated secondary antibodies. Second antibodies were incubated with cells for 45 minutes at 2-8° C. in a light-tight box and followed by washing three times. After the last wash, cells were suspended in washing buffer and analyzed by flow cytometry (BD LSR or BD LSRII). Data analysis was performed using FlowJo. • ELISA: To detect NE release into medium during neuronal differentiation, supernatant was collected at indicated time points along differentiation. Enzyme-linked immunosorbent assay (ELISA) were performed using a Noradrenaline (Norepinephrine) ELISA Assay Kit (EAGLE, NOR31-K01) following the manufacturer's instructions. • Electrophysiology: Whole-cell patch-clamp recordings were made from human ESC-derived NE neurons at 4 weeks. Briefly, the NE neurons were held at −70 mV to record the Na+/K+ channel activities with voltage-clamp model. For recording action potentials, the cells were held at 0 pA with the current-clamp model, and with the steps of injected currents from −50 pA to +50 pA. The bath solution consisted of 135 mM NaCl, 3 mM KCl, 2 mM CaCl2), 1 mM MgCl2, 10 mM HEPES, 11 mM glucose, 10 mM sucrose, pH7.4. […]
# [2] = system: hindbrain R1 neuroepithelial cells; experiment: NE progenitor fate specification of hindbrain R1 neuroepithelial cells (qPCR of MASH1, PHOX2B, PHOX2A and regional markers); conditions: for effect on expression of MASH1, PHOX2B, and PHOX2A: day 6 to day 12
# Description: as §1
# Development of NE neurons in LC depends on expression of Mash1, Phox2b and Phox2a in a stage dependent manner. See Pattyn et al., 2000, Mol Cell Neurosci, 15:235-243; Morin et al., 1997, Neuron, 18:411-423; Hirsch et al., 1998, Development, 125:599-608. Mash1 is expressed in the proliferative progenitor cells, while Phox2b and Phox2a are expressed when cells became postmitotic precursors and neurons. Pattyn et al., 2000. […] Thus, the effects of FGF8 and BMPs were tested in the second week of differentiation (FIG. 2B).
# In further experiments it was determined whether the unique role of Activin A on human NE neuron specification was regional identity dependent. Neuroepithelial cells ranging from anterior forebrain to posterior hindbrain were obtained using different doses of CHIR99021, and then these neuroepithelial cells were treated with 25 ng/ml Activin A for 6 days.
# Specifically, gene expression of MASH1 and PHOX2A/2B at different times was observed when NE progenitors were cultured in the presence of a low dose of Activin A (25 ng/ml) or a high dose of Activin A (125 ng/ml).
# To determine whether blockade of BMP pathway or SHH pathway could facilitate NE specification, which could narrow the domain along the dorsal to ventral axis, hindbrain R1 neuroepithelial cells were treated with Activin A with or without BMP and SHH antagonist (FIGS. 3D-3I).
# [3] = system: GRABNE1m sensor-expressing NE neurons; experiment: Fluorescence imaging of GRABNE1m sensor cells; conditions: 1 μM
molecule,measurement,setting,value
Cc1c[nH]c(-c2cnc(NCCNc3ccc(C#N)cn3)nc2-c2ccc(Cl)cc2Cl)n1 [CHIR99021],cells expressing EN1 by immunocytochemistry,"[1]; 1 μM, day 6",majority of the cells
same,cells positive for OTX2 and HOXA2 by immunocytochemistry,"[1]; 1 μM, day 6",few or no cells
same,"concentration above which EN1, EN2, PAX2 mRNA began to down-regulate and HOXA2, GBX2 increased","[1]; 6 days, mRNA level",above 0.6 μM
same,concentration at which PHOX2B and PHOX2A reached their highest level,"[1]; dose increment, 6 days",around 1 μM
same,"expression of midbrain transcription factor genes EN1, EN2, PAX2",[1]; increasing concentrations over 6 days,upregulated
same,expression of OTX2 at mRNA and protein levels,"[1]; increasing concentrations over 6 days, RT-qPCR and flow cytometry",down-regulated
"CC(C)Oc1ccc(-c2cnc3c(-c4ccnc5ccccc45)cnn3c2)cc1 [DMH1, 4-[6-(4-Isopropoxyphenyl)pyrazolo[1,5-a]pyrimidin-3-yl]quinoline]",increase of NE progenitor markers,"[2]; 2 μM, with Activin A",1.5 fold
NC[C@H](O)c1ccc(O)c(O)c1 [Norepinephrine],intensity of GRABNE1m sensor fluorescence,[3],increased
CC1=C2C[C@H]3[C@@H](CC=C4C[C@@H](O)CC[C@@]43C)[C@@H]2CC[C@]12O[C@@H]1C[C@H](C)CN[C@H]1[C@H]2C [cyclopamine],effect on NE progenitor markers MASH1 and PHOX2A/2B,"[2]; 2 μM, with Activin A",only minor effects
same,expression of dorsal markers MATH1 and OLIG3,"[2]; 2 μM, with Activin A",increased expression
TGF-β1: transforming growth factor β1,"effect on expression of MASH1, PHOX2B, and PHOX2A",[2]; 10 ng/ml,not
B1,concentration at which MASH1 reached maximum expression level,[2],25 ng/mL
same,concentration at which PHOX2B and PHOX2A reached maximum level,[2],250 ng/mL
same,"effect on expression of MASH1, PHOX2B, and PHOX2A",[2]; 10 ng/ml,positive effect
same,"PHOX2B expression, high dose (125 ng/ml) versus low dose (25 ng/ml)",[2]; day 9,similar
same,"MASH1 expression, high dose (125 ng/ml) versus low dose (25 ng/ml)",[2]; day 9 to day 12,no obvious difference
same,"PHOX2B expression, high dose (125 ng/ml) versus low dose (25 ng/ml)",[2]; day 12,over 2 fold
same,"increase of MASH1, PHOX2B, and PHOX2A expression with dose",[2]; series of Activin A concentrations,dose-dependent manner
B2,"effect on expression of MASH1, PHOX2B, and PHOX2A",[2]; 10 ng/ml,no obvious effects
B3,"effect on expression of MASH1, PHOX2B, and PHOX2A",[2]; 10 ng/ml,no obvious effects
B4,"effect on expression of MASH1, PHOX2B, and PHOX2A",[2]; 100 ng/ml,no obvious effects
B5,"effect on expression of MASH1, PHOX2B, and PHOX2A",[2]; 10 ng/ml,no obvious effects
